Experimental data reported in patent US10401793B2, “Digital holographic method of measuring cellular activity and measuring apparatus with improved stability” (PURDUE RESEARCH FOUNDATION, priority 2010, dated 2019).
Entries after “also recorded” stand apart in the source; their conditions may differ. Read-outs that look alike come from different tables or passages of the source.

What was measured:
Type in all cases: cell-based
[1] = test system: Rat osteogenic sarcoma tumor spheroids; experiment: Speckle fluctuation spectroscopy: differential spectrograms (normalized spectral difference) of living tumor spheroids by coherence-gated digital holography
Description: The set-up includes several mirrors M; a neutral density filter ND, two polarizing beam splitters PBS, a beam splitter BS, three lenses L1-L3, a half-wave plate λ/2, a quarter-wave plate λ/4, a Fourier plane FP, and a sample or target T. A mode-locked Ti:sapphire laser (100 fs pulse duration, 100 MHz repetition rate) was used with a center wavelength of 840 nm and a bandwidth of 17 nm. The lenses L1 and L2 expanded a reference beam, and the lens L3 performed the Fourier transform of the object beam. The CCD camera was placed at the Fourier plane of the object, where the object beam interfered with the zero-path-matched reference beam that passed through the computer-controlled delay line. The typical object intensity for living tissue at the object plane was 5 mW/mm^2, and an 8-bit CCD camera with one mega-pixel resolution was used with an exposure time of 10 msec. Digital holograms were reconstructed by Fast Fourier transform (FFT).
Rat osteogenic sarcoma tumor spheroids were used as the target tissue samples. Multicellular tumor spheroids have approximately spherical geometry that facilitates comparison of structure to function. As tumor spheroids are cultured in a rotating bioreactor, they undergo cell apoptosis or necrosis in their center and so consist of an inner necrotic core surrounded by an outer proliferating shell with a 100 to 200 μm thickness. A typical pseudo B-scan image is shown in FIG. 20, which is produced from 3D holographic images of an 800-μm-diameter rat tumor spheroid.
To capture dynamic speckle, 200 successive digital holograms were acquired at a fixed depth shown as a dashed line in FIG. 20. The time interval between holograms was selected to be 0.1 second. Examples of dynamic speckle are shown in FIG. 21A for a healthy rat tumor spheroid with a 600 μm diameter. […] The horizontal axis is the spatial axis and time is vertical. […] A “healthy” tumor is one that has been removed from the bioreactor and maintained in growth medium at room temperature for no more than 24 hours.
For tissue responding to stimuli, such as temperature and osmolarity changes or response to drugs, the key property of the spectral power density is its relative change in response to the stimulus. The normalized spectral difference for a time series is given by
[formula] where S0 (ω,t 0) is the starting spectral power density at the beginning time t0 of the experiment, and S(ω, t) is the time development of the spectral power density. The normalized power spectrum as a function of frequency of a 450-μm-diameter tumor responding to a dose of 1 μg/ml of nocodazole, an anti-tubulin cytoskeletal drug, is shown in FIG. 21C at selected times after the application of the drug. The associated normalized differential relative spectral change is shown in FIG. 21D as a function of time for the selected frequencies.
The tissue response contained in D(ω, t) can be represented as a spectrogram, showing the relative change in the spectrum as a function of time. These spectrograms track the changes of the intra-cellular motion in living tumors responding to temperature changes, osmolarity changes, and to nocodazole. The spectral difference in response to changes in temperature is shown in FIG. 22A as the temperature increased from 24° C. to 37° C. and then decreased to 24° C. The lower frequencies show weak suppression with increasing temperature, while the upper frequencies show significant enhancement at the highest temperature.
The drug-response spectrograms are defined by the differential relative spectral density as D(ω, t)=[S(ω, t)−S(ω, t0)]/S (ω, t0) where the spectrum at time t is related to and normalized by the spectrum at time to before the application of the perturbation or dose. The normalization is essential, because the spectral power density has general 1/f behavior, and the high frequency amplitudes are much smaller than the low frequency amplitudes. […]

tumor spheroids = experiment: Motility contrast imaging (motility metric, dynamic speckle) of tumor spheroids; settings: for dose-response plotted as a reaction velocity (suppression of cellular motion): FIG. 13D, comparison of Nocodazole, Colchicine, Taxol
Procedure: To create tumor spheroids for our studies, two different cell lines were used: rat osteogenic sarcoma UMR-106 cells, and human liver carcinoma Hep G2 cells. These were cultured in a rotating bioreactor (Synthecon, Houston, Tex.) where they were maintained in suspension. The spheroids may be grown up to a mm in diameter. An advantage to using this continuous culture model is that fresh spheroids of varying size are easily prepared on a daily basis.
Motility contrast imaging relies on dynamic light scattering combined with coherence gating. […] The data are the reconstructed pixel intensities plotted on a dB reflectance scale. The tumor in FIG. 9A was “healthy” while the tumor in FIG. 9B had been crosslinked with glutaraldehyde. […] The vertical axis is frame number at a rate of one frame per second.
Among the several possible ways to define a motility metric, one particularly robust approach simply calculates the coefficient of variance (known as the CV or as the normalized standard deviation) of a pixel value (after background subtraction) as a property related to the cellular and subcellular motion. The motility metric for individual pixels is plotted in FIG. 11 at nine selected depths inside a healthy tumor. The depths starting in the upper-left are 60 μm, 120 μm, 180 μm, 260 μm, 330 μm, 390 μm, 460 μm, 530 μm and 600 μm, respectively. The first frame is near the top of the tumor, while the central frame is near the center plane of the tumor. In the central plane there is a strong contrast between the healthy shell and necrotic core. […] These images correlate with the known structure of the tumor spheroids with a healthy outer shell and a necrotic core. In these images, the internal motions of the cells themselves have provided the imaging contrast agent. This is a truly endogenous functional imaging approach (i.e. without additional labeling or contrast agents).
Armed with the motility metric and the maps of cellular motion, it is possible to image the effects of anti-mitotic drugs (AMD) on the motility images. A time series at a fixed depth is shown in FIG. 12 for Nocodazole, which is an antimitotic drug (AMD) that inhibits the polymerization of tubulin into microtubules. The first frame is the initial state of the tumor. […] Nocodazole inhibits the polymerization of the microtubules, while treadmilling dissolves the microtubules from the other end, resulting in a significant reduction in the microtubule density within the cells. Without the microtubule cytoskeleton, organelle transport is suppressed, which is captured by the dynamic light scattering.

[2] = test system: tumor spheroid (healthy shell and necrotic core); experiment: Heterodyne autocorrelation function of depth-gated speckle (correlation time, NSD) of a tumor spheroid; settings: 10 minutes after 10 μg/ml cytochalasin D
Description: In living tissue, the speckle is dynamic, caused by motion of cellular membranes and by intracellular organelles, coupled with the optical channel cross-talk caused by multiple scattering. […] We previously studied the effects of anti-mitotic drugs on tumor spheroids using optical coherence imaging, and defined motility metrics from the autocorrelation functions of the depth-gated pixel fluctuations. The resulting motility contrast imaging (MCI) is fully endogenous, responding to the dynamic functions of cellular processes. The autocorrelation function is a first-order heterodyne function because the holography uses a reference wave (the coherence gate) that captures the real and imaginary part of the fluctuating field as the coherence-gated pixel number Id^(1) (t) to yield the autocorrelation function A^(1)(τ)= ? id^(1)(0)id^(1)(τ) ? ∝ILO^2+2ILORE {I^(1)(τ)} where τ is the time delay among an ensemble of images, and I^(1), (τ) is the heterodyne correlation function. Two motility metrics can be defined from the heterodyne correlation function. They are the decay time, and the normalized standard deviation, given by
An ensemble consists of 40 images taken with a frame rate of 1 per second. […] […].

With COc1cc2c(c(OC)c1OC)-c1ccc(OC)c(=O)cc1[C@@H](NC(C)=O)CC2 [Colchicine] the “high-frequency organelle activity, core-shell comparison” value (shortened to “high-frequency organelle activity”) [1] was “appears only in the healthy shell and not in the core” and the spectrogram fingerprint [1] was “significant enhancement of lower frequencies”.

In the case of COC(=O)Nc1nc2ccc(C(=O)c3cccs3)cc2[nH]1 [Nocodazole], the “motility (activity) of the outer shell, motility maps” value (tumor spheroids; 2 μg/ml Nocodazole, 3 minutes after application, fixed depth) was “increased its activity by a small amount”, the “motility (motion) of the outer shell, motility maps” value (“motility (motion)” for short) (tumor spheroids; 2 μg/ml Nocodazole, 21 minutes) was “partially suppressed” and the “motility (motion)” value (tumor spheroids; 2 μg/ml Nocodazole, 50 minutes) was “further suppressed”. The “motility (motion)” value (tumor spheroids; 2 μg/ml Nocodazole, 79 minutes) was “further suppressed”, the “motility in the outer shell, motility maps” value (tumor spheroids; 2 μg/ml Nocodazole, 119 minutes after application) was “significantly reduced” and the “dose-response plotted as a reaction velocity (suppression of cellular motion)” value (tumor spheroids) was “strongest suppression of cellular motion at the lowest effective concentrations”. The “normalized spectral difference, middle frequency range between 0.02 Hz to 1 Hz” value ([1]; 1 μg/ml nocodazole) was “very strong suppression in motion”, the “normalized spectral difference, ultra-low frequency below 0.01 Hz” value ([1]; 1 μg/ml nocodazole) was “enhancement” and the “normalized differential relative spectral change as a function of time at selected frequencies” value ([1]; 1 μg/ml nocodazole, 450-μm-diameter tumor, proliferating shell) was “higher frequencies change relatively less than the lower frequencies”. The spectrogram fingerprint ([1]; dose of 1 μg/ml, FIG. 34A-34D) was “significant enhancement of lower frequencies”.

CC(=O)O[C@H]1C(=O)[C@@]2(C)[C@H]([C@H](OC(=O)c3ccccc3)[C@]3(O)C[C@H](OC(=O)[C@H](O)[C@@H](NC(=O)c4ccccc4)c4ccccc4)C(C)=C1C3(C)C)[C@]1(OC(C)=O)CO[C@@H]1C[C@@H]2O [Taxol, Paclitaxel] was tested, and the “suppression of the motility, time evolution under different doses” value (tumor spheroids; FIG. 13A-13C) was “significantly smaller suppression of the motility”, the “dose-response plotted as a reaction velocity (suppression of cellular motion)” value (tumor spheroids) was “weakest effect” and the spectrogram fingerprint ([1]; dose of 1 μg/ml, FIG. 34A-34D) was “only a weak change”. The “high-frequency organelle activity” value ([1]; shell versus core spectrograms) was “appears only in the healthy shell and not in the core”.

With C=C1[C@@H](C)[C@H]2[C@H](Cc3ccccc3)NC(=O)[C@]23[C@H](OC(C)=O)/C=C/[C@@](C)(O)C(=O)[C@@H](C)C/C=C/[C@H]3[C@@H]1O [cytochalasin D] the “relative power spectral density, middle-frequency fluctuations, shell” value ([1]; 50 μg/ml cytochalasin D at room temperature, 10 μg/ml at physiological temperature) was “enhanced”, the spectrogram fingerprint ([1]; dose of 1 μg/ml, FIG. 34A-34D) was “enhancement of the mid-frequencies for about 2 hours after application of the drug, followed by a shift of the spectral weight to lower frequencies” and the “high-frequency organelle activity” value ([1]; shell versus core spectrograms) was “appears only in the healthy shell and not in the core; also recorded: appears strongly only in the shell and not in the core”. For the same compound, the “brightness change of the healthy shell” value [2] was 6%, the “brightness change of the necrotic core” value [2] was “becomes dimmer” and the “correlation time, healthy shell” value ([2]; before dose 4.6 sec) was 7.2 s.

In the case of O=CCCCC=O [glutaraldehyde], the “dynamic speckle at fixed depth” value (tumor spheroids; tumor crosslinked with glutaraldehyde, depth about 300 microns, one frame per second) was “static speckle”.

With O=C(O)CI [iodoacetate] the “oscillations in the spectrogram, shell and core” value [1] was “induces oscillations in the mid-to-low frequency range” and the “spectrogram of the shell, high frequencies associated with organelle transport” value [1] was “strong increase”.
